Publication PMC2922070 (Journal of peptide science : an official publication of the …, 2009)

Key:
Assay type in all cases: biochemical
CaMKI = CaMKI (Homo sapiens, UniProt Q14012); experiment: Radiometric kinase activity; settings: ± S.D. between two samples, SD
SAPK2a (p38α) = SAPK2a (p38α) (Homo sapiens, UniProt Q16539); experiment: Radiometric kinase activity; settings: ± S.D. between two samples, SD
IRAK4 = target: T1, IRAK4 (Homo sapiens, UniProt Q9NWZ3); experiment: Radiometric kinase activity; settings: ± S.D. between two samples, SD
T1 sequence (Q9NWZ3 1-460): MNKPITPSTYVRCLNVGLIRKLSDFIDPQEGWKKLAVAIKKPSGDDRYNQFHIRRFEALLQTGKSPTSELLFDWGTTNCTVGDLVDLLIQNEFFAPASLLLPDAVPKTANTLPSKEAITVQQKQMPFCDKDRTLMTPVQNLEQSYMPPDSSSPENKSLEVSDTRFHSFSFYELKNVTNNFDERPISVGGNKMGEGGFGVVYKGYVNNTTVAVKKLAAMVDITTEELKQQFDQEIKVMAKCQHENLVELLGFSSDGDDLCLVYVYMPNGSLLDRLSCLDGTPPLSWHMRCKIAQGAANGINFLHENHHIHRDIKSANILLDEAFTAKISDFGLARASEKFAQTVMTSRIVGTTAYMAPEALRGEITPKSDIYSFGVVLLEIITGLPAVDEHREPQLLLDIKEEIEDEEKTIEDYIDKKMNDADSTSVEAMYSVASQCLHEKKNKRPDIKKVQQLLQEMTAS

MLCK = MLCK (Homo sapiens, UniProt Q9H1R3); experiment: Radiometric kinase activity; settings: ± S.D. between two samples, SD
MLCK, sequence (Q9H1R3 2-596): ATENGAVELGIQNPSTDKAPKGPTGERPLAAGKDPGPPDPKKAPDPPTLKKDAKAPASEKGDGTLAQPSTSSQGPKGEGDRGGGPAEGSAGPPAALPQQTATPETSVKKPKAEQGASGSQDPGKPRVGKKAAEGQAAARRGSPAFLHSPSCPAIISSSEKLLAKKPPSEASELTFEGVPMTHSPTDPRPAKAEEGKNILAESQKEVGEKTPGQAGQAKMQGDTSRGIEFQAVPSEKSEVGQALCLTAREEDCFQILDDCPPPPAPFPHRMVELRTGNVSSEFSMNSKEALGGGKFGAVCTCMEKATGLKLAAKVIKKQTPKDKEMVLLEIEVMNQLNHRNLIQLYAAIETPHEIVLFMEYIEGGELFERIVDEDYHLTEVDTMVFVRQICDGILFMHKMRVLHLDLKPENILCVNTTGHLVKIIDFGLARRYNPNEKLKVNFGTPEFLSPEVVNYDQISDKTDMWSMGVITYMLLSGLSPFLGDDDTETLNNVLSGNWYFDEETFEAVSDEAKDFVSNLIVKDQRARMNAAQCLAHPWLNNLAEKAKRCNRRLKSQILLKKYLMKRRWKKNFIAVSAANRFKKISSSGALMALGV

ROCK-I = ROCK-I (Homo sapiens, UniProt Q13464); experiment: Radiometric kinase activity; settings: ± S.D. between two samples, SD
ROCK-I, sequence (Q13464 whole entry): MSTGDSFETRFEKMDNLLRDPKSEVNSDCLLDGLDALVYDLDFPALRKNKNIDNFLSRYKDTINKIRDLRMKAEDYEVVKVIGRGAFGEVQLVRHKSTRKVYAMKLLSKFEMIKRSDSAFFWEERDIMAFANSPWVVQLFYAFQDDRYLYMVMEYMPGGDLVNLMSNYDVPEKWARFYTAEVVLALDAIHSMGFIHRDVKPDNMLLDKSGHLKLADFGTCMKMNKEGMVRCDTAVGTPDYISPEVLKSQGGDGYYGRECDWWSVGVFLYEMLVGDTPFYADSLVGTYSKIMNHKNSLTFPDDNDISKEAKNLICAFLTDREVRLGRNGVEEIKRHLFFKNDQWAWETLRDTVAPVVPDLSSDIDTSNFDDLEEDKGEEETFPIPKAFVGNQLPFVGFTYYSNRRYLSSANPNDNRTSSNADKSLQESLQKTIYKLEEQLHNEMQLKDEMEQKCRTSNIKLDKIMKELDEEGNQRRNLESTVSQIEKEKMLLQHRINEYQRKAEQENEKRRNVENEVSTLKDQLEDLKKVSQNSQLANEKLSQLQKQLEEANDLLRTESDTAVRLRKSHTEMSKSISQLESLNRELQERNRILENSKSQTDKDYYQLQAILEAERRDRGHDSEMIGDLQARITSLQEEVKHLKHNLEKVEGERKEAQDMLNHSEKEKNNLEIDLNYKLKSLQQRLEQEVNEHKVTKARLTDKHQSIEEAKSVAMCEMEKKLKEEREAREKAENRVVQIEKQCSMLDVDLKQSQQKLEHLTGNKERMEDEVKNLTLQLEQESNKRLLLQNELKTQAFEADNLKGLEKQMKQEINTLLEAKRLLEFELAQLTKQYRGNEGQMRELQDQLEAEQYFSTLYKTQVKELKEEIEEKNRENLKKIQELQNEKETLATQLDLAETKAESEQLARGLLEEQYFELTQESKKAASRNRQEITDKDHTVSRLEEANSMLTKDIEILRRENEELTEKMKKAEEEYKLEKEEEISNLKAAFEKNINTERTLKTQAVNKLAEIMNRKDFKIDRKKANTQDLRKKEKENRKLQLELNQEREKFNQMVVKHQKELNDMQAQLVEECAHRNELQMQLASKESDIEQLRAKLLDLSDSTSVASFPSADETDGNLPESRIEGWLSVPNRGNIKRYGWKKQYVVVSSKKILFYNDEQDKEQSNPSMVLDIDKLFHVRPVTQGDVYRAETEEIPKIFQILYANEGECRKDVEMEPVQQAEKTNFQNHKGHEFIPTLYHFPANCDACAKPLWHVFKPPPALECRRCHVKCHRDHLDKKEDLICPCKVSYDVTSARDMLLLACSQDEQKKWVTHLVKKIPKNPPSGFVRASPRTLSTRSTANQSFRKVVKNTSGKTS

MK2 [1] = target: T2, MK2 (Homo sapiens, UniProt P49137); experiment: Radiometric IC50 determination
T2 sequence (P49137 whole entry): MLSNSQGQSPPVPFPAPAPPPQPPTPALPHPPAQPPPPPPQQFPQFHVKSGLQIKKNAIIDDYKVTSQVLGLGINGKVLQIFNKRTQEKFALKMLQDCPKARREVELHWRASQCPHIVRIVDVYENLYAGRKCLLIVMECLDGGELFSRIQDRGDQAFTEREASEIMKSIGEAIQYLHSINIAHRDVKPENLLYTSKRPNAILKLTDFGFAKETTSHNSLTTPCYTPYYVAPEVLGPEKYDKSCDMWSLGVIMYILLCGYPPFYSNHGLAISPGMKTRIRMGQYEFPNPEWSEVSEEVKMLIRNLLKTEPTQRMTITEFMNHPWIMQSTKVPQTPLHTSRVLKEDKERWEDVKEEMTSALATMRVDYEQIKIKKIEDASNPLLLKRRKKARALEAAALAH

MK2 [2] = target: T2, MK2; experiment: Radiometric kinase activity; settings: ± S.D. between two samples, SD
PKCδ = PKCδ (Homo sapiens, UniProt Q05655); experiment: Radiometric kinase activity; settings: ± S.D. between two samples, SD
PKCδ, sequence (Q05655 whole entry): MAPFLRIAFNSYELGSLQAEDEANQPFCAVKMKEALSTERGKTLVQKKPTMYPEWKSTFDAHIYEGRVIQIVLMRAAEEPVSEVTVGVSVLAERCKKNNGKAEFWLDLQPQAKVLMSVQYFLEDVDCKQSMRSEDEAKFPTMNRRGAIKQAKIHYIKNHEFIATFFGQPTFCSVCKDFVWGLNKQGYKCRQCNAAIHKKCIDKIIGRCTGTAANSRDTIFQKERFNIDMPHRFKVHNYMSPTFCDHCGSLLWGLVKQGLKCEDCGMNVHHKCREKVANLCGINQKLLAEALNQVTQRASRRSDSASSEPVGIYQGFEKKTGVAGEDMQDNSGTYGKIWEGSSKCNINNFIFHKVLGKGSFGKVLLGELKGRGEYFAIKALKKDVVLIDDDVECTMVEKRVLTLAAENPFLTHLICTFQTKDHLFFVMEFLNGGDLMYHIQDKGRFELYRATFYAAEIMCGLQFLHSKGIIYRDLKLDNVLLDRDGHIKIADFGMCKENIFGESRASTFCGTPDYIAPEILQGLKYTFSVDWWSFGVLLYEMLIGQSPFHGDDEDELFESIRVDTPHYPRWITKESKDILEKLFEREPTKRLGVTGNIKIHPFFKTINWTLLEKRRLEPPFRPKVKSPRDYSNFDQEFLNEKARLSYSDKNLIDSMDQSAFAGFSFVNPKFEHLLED

PKBβ = PKBβ (Homo sapiens, UniProt P31751); experiment: Radiometric kinase activity; settings: SD; for Percentage kinase activity, PKBβ: peptide 300 μM, ± S.D. between two samples
PKBβ, sequence (P31751 whole entry): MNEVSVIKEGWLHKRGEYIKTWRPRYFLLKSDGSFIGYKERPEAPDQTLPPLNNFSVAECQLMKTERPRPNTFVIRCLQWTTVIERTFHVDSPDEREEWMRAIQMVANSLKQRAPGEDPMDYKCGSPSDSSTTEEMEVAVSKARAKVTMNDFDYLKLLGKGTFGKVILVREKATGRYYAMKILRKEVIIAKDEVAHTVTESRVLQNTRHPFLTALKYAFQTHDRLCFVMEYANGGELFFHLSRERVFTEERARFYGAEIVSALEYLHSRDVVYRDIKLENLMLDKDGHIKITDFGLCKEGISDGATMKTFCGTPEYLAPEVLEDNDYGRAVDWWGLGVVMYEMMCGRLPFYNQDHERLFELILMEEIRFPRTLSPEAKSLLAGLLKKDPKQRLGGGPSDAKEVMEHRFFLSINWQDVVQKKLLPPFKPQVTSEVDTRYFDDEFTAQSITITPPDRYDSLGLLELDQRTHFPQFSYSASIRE

MK3 = MK3 (Homo sapiens, UniProt Q16644); experiment: Radiometric kinase activity; settings: ± S.D. between two samples, SD
MK3, sequence (Q16644 whole entry): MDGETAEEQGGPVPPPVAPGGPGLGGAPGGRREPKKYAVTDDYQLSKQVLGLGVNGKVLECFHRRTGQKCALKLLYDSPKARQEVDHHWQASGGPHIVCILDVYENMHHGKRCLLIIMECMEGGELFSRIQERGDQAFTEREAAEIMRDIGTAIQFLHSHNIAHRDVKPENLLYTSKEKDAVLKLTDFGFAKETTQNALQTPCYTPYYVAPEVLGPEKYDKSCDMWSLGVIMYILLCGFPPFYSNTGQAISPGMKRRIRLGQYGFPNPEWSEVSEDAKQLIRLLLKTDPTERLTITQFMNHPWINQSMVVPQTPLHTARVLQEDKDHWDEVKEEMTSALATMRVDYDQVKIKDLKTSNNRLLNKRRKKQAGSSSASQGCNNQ

MK5 = target: T3, MK5 (Homo sapiens, UniProt Q8IW41); experiment: Radiometric kinase activity; settings: ± S.D. between two samples, SD
T3 sequence (Q8IW41 1-473): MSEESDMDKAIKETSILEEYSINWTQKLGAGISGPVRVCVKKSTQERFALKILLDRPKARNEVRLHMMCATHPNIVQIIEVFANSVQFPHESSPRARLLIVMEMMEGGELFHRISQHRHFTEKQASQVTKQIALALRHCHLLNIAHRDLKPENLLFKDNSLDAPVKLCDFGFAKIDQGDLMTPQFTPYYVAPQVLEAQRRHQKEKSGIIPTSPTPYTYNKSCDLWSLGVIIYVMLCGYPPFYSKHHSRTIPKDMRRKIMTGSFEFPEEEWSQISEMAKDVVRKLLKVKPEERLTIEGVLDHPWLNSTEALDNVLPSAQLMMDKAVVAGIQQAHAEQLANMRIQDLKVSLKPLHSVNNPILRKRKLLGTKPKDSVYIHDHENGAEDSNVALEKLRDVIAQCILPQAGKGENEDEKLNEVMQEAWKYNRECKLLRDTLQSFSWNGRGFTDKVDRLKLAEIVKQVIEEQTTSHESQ

MK2 [3] = target: T2, MK2; experiment: Fluorescence-based kinase activity assay
[4] = read-out: Percentage kinase activity, PKBβ

CaMKI, sequence (Q14012 whole entry): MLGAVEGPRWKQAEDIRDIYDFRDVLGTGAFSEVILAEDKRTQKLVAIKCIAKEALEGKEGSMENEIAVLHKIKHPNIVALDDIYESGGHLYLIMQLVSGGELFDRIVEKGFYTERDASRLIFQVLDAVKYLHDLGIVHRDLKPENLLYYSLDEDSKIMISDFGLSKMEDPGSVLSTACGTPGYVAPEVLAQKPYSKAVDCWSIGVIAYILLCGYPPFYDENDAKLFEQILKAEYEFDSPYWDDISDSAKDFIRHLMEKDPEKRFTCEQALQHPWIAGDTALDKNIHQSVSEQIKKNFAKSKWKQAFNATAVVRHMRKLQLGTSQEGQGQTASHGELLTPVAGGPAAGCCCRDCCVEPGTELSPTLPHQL
SAPK2a (p38α), sequence (Q16539 whole entry): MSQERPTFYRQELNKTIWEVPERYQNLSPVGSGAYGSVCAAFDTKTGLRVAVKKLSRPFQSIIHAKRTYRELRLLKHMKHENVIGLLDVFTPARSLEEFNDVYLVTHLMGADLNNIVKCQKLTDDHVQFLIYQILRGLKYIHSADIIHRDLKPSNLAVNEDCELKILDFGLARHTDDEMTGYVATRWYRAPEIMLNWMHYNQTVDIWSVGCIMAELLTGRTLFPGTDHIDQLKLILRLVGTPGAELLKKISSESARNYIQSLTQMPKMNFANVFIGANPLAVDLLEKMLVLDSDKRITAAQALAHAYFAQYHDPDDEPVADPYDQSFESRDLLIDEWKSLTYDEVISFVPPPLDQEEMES

## CC[C@H](C)[C@H](NC(=O)[C@H](CCCNC(=N)N)NC(=O)[C@H](CCCNC(=N)N)NC(=O)[C@H](CC(C)C)NC(=O)[C@H](Cc1c[nH]c2ccccc12)NC(=O)[C@H](C)NC(=O)[C@H](CCCCN)NC(=O)[C@@H](NC(=O)[C@H](CCCNC(=N)N)NC(=O)[C@H](CCCNC(=N)N)NC(=O)[C@H](CC(C)C)NC(=O)[C@@H](N)Cc1c[nH]c2ccccc12)[C@@H](C)CC)C(=O)N[C@@H](CCCCN)C(=O)N[C@@H](C)C(=O)N[C@@H](CC(C)C)C(=O)N[C@@H](CC(N)=O)C(=O)N[C@@H](CCCNC(=N)N)C(=O)N[C@@H](CCC(N)=O)C(=O)N[C@@H](CC(C)C)C(=O)NCC(=O)N[C@H](C(=O)N[C@@H](C)C(=O)N[C@@H](C)C(N)=O)C(C)C
CaMKI; peptide 30 μM
  Percentage kinase activity, CaMKI: 9 ± 1%
SAPK2a (p38α); peptide 30 μM
  Percentage kinase activity, SAPK2a (p38α): 61 ± 7%
IRAK4; peptide 30 μM
  Percentage kinase activity, IRAK4: 12 ± 1%
MLCK; peptide 30 μM
  Percentage kinase activity, MLCK: 4 ± 1%
ROCK-I; peptide 30 μM
  Percentage kinase activity, ROCK-I: 0 ± 1%
MK2 [1]
  IC50: 740 nM
MK2 [2]; peptide 30 μM
  Percentage kinase activity, MK2: 2 ± 1%
PKCδ; peptide 30 μM
  Percentage kinase activity, PKCδ: 11 ± 0%
PKBβ; [4]
  activity at 30 µM: 18 ± 2%
MK3; peptide 30 μM
  Percentage kinase activity, MK3: 16 ± 2%
MK5; peptide 30 μM
  Percentage kinase activity, MK5: 67 ± 9%

## CC(C)C[C@H](NC(=O)[C@H](C)NC(=O)[C@H](CCCCN)NC(=O)[C@H](CCCNC(=N)N)NC(=O)[C@H](Cc1ccc(O)cc1)NC(=O)[C@H](CC(C)C)NC(=O)[C@H](CCCNC(=N)N)NC(=O)[C@H](C)NC(=O)[C@H](C)NC(=O)[C@H](CC(C)C)NC(=O)[C@H](CCCCN)NC(=O)[C@H](C)NC(=O)[C@@H](N)Cc1ccccc1)C(=O)N[C@@H](C)C(=O)N[C@@H](CCCNC(=N)N)C(=O)N[C@@H](CCC(N)=O)C(=O)N[C@@H](CC(C)C)C(=O)NCC(=O)N[C@H](C(=O)N[C@@H](C)C(=O)N[C@@H](C)C(N)=O)C(C)C
CaMKI; peptide 100 μM
  Percentage kinase activity, CaMKI: 0 ± 2%
SAPK2a (p38α); peptide 100 μM
  Percentage kinase activity, SAPK2a (p38α): 30 ± 6%
IRAK4; peptide 100 μM
  Percentage kinase activity, IRAK4: 13 ± 4%
MLCK; peptide 100 μM
  Percentage kinase activity, MLCK: 1 ± 1%
ROCK-I; peptide 100 μM
  Percentage kinase activity, ROCK-I: 25 ± 2%
MK2 [1]
  IC50: 1800 nM
MK2 [2]; peptide 100 μM
  Percentage kinase activity, MK2: 5 ± 2%
PKCδ; peptide 100 μM
  Percentage kinase activity, PKCδ: 40 ± 2%
PKBβ; [4]
  activity at 100 µM: 16 ± 5%
MK3; peptide 100 μM
  Percentage kinase activity, MK3: 10 ± 1%
MK5; peptide 100 μM
  Percentage kinase activity, MK5: 131 ± 4%

## CC(C)C[C@H](NC(=O)[C@H](C)NC(=O)[C@H](CCCCN)NC(=O)[C@H](CCCNC(=N)N)NC(=O)[C@H](Cc1ccc(O)cc1)NC(=O)[C@H](CC(C)C)NC(=O)[C@H](CCCNC(=N)N)NC(=O)[C@H](C)NC(=O)[C@H](C)NC(=O)[C@H](CC(C)C)NC(=O)[C@H](CCCCN)NC(=O)[C@H](C)NC(=O)[C@H](Cc1ccccc1)NC(=O)[C@H](C)NC(=O)[C@@H](N)CCCCN)C(=O)N[C@@H](C)C(=O)N[C@@H](CCCNC(=N)N)C(=O)N[C@@H](CCC(N)=O)C(=O)N[C@@H](CC(C)C)C(=O)NCC(=O)N[C@H](C(=O)N[C@@H](C)C(=O)N[C@@H](C)C(N)=O)C(C)C
CaMKI; peptide 100 μM
  Percentage kinase activity, CaMKI: 0 ± 2%
SAPK2a (p38α); peptide 100 μM
  Percentage kinase activity, SAPK2a (p38α): 59 ± 8%
IRAK4; peptide 100 μM
  Percentage kinase activity, IRAK4: 16 ± 2%
MLCK; peptide 100 μM
  Percentage kinase activity, MLCK: 2 ± 0%
ROCK-I; peptide 100 μM
  Percentage kinase activity, ROCK-I: 29 ± 0%
MK2 [1]
  IC50: 4400 nM
MK2 [2]; peptide 100 μM
  Percentage kinase activity, MK2: 8 ± 1%
PKCδ; peptide 100 μM
  Percentage kinase activity, PKCδ: 24 ± 3%
PKBβ; [4]
  activity at 100 µM: 28 ± 4%
MK3; peptide 100 μM
  Percentage kinase activity, MK3: 17 ± 1%
MK5; peptide 100 μM
  Percentage kinase activity, MK5: 148 ± 4%

## YARAAARQARAKALARQLGVAA
MLCK; peptide 300 μM
  Percentage kinase activity, MLCK: 9 ± 0%
MK2 [2]; peptide 300 μM
  Percentage kinase activity, MK2: 0 ± 0%
PKBβ
  Percentage kinase activity, PKBβ: 17 ± 2%
MK3; peptide 300 μM
  Percentage kinase activity, MK3: 5 ± 1%
MK5; peptide 300 μM
  Percentage kinase activity, MK5: 86 ± 2%

## YARAAARQARAKALNRQLGVAA
CaMKI; peptide 300 μM
  Percentage kinase activity, CaMKI: 8 ± 1%
SAPK2a (p38α); peptide 300 μM
  Percentage kinase activity, SAPK2a (p38α): 100 ± 6%
IRAK4; peptide 300 μM
  Percentage kinase activity, IRAK4: 68 ± 3%
ROCK-I; peptide 300 μM
  Percentage kinase activity, ROCK-I: 95 ± 7%
MK2 [2]; peptide 300 μM
  Percentage kinase activity, MK2: 10 ± 3%
PKCδ; peptide 300 μM
  Percentage kinase activity, PKCδ: 105 ± 2%
PKBβ
  Percentage kinase activity, PKBβ: 96 ± 1%
MK3; peptide 300 μM
  Percentage kinase activity, MK3: 19 ± 3%
MK5; peptide 300 μM
  Percentage kinase activity, MK5: 81 ± 3%

## YGRKKRRQRRR
MK2 [3]; peptide 25 μM
  inhibition of MK2 activity: 47.7%
MK2 [3]; peptide 100 μM
  inhibition of MK2 activity: 61.2%
